The compounds below were run against α4β7 integrin (Homo sapiens (Human), UniProt P13612+P26010) (assay: α4β7 Integrin Cell Capture Assay). Settings: RPMI8866 cells captured on MadCAM-1 extracellular domain-coated plate.
Type: cell-based
Procedure: α4β7 Integrin Cell Capture Assay
The potency of inhibitors in preventing α4β7 integrin interaction with MadCAM-1 was measured by monitoring the capture of α4β7 integrin expressing cells on a recombinant MadCAM-1 extracellular domain-coated plate. […] The plates were then washed with PBS and blocked with 3% BSA for 2 hours before being washed again.
RPM18866 cells were spun down and re-suspended in assay medium (DMEM+0.5% FBS+0.5 mM MnCl2) at a density of 0.5×10^6 cells/mL. […] The plates were incubated at 37° C. for 1 hour. 50 μL of cells were transferred to the blocked, MadCAM-1-coated plates and incubated for 30 minutes at 37° C. […] The plates were incubated for 90 minutes at room temperature. The plates were then washed 3 times with 70 μL of PBS per well and imaged on a Cellomics ArrayScan instrument. The cells that were bound to the plate were counted and plotted against the compound concentration to determine the EC50 of the test compounds.

α4β7 integrin, sequence (P13612 34-1032): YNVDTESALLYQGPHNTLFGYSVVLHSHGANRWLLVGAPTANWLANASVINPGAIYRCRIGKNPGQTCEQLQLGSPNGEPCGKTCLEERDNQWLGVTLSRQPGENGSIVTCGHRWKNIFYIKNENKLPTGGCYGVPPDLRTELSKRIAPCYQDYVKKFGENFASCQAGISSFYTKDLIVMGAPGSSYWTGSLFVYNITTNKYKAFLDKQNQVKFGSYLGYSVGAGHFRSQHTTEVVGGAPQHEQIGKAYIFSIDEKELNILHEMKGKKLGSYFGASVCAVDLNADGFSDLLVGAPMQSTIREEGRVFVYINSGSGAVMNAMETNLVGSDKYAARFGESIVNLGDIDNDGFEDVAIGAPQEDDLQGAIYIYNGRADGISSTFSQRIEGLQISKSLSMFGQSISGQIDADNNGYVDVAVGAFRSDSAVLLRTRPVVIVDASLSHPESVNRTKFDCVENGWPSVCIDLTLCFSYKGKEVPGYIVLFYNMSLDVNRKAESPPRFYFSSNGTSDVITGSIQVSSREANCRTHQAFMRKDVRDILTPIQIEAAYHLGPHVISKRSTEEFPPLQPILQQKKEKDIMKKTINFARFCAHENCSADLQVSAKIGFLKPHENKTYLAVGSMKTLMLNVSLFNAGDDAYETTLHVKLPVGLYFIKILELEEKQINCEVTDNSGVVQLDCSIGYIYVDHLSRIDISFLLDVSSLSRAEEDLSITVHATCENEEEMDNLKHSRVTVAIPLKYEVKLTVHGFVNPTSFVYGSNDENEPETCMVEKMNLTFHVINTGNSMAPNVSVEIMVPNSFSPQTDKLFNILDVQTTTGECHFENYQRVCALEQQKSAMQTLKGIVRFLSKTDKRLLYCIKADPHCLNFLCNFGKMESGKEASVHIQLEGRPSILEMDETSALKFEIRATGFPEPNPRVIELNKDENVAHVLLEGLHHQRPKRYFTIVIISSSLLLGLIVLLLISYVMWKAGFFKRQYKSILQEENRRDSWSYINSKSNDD
α4β7 integrin, sequence (P26010 20-798): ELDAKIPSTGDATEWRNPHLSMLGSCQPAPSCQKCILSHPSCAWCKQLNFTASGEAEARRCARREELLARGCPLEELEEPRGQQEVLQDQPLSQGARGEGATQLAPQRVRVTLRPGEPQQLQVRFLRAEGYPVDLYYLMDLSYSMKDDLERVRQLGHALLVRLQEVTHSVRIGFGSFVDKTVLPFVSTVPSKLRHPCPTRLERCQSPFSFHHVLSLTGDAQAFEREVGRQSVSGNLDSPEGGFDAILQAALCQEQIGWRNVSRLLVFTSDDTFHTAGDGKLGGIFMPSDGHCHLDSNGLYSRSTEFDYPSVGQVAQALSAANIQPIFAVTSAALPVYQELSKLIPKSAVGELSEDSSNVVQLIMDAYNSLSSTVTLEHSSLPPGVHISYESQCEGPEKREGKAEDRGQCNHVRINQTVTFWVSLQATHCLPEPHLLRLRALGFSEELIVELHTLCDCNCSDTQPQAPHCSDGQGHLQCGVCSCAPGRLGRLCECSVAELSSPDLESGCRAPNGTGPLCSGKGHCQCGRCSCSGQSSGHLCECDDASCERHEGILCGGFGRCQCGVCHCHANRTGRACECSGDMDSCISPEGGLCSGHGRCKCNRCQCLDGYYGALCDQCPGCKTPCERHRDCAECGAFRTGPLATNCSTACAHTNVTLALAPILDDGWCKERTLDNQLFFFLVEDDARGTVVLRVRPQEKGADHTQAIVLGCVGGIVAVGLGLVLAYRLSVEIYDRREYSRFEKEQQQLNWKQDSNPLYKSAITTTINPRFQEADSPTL

Row | Compound | EC50
1 | CC[C@@]1(C)CN(c2cc(F)c(C(=O)N[C@@H](Cc3ccc(-c4c(C(F)(F)F)cc(C)n(C)c4=O)c4ncccc34)C(=O)O)c(F)c2)CCO1 [Example 445] | 0.984 nM
2 | CN(C)c1ccc2c(c1)c(=O)n(-c1ccc(C[C@H](NC(=O)c3c(F)cc(N4CCOC[C@@H]4C(F)(F)F)cc3F)C(=O)O)c3cccnc13)c(=O)n2C [Example 478] | 0.394 nM
3 | Cc1cc(N2CCOC[C@@H]2C(F)(F)F)cc(F)c1C(=O)N[C@@H](Cc1cc(F)c(-n2c(=O)c3ccncc3n(C)c2=O)c2ncccc12)C(=O)O [Example 433] | 0.076 nM
4 | Cc1cc(C(F)(F)F)c(-c2ccc(C[C@H](NC(=O)c3c(F)cc(N4CCO[C@@H](C)[C@@H]4C(F)(F)F)cc3F)C(=O)O)c3cccnc23)c(=O)n1C [Example 468] | 0.189 nM
5 | Cc1cc(N2CCOC[C@@H]2C(F)(F)F)cc(F)c1C(=O)N[C@@H](Cc1ccc(-c2cnc(C)n(C)c2=O)c2ncccc12)C(=O)O [Example 467] | 0.238 nM
6 | Cc1cc(N2CCOC3(CC3)C2)cc(F)c1C(=O)N[C@@H](Cc1ccc(-c2c(C(F)(F)F)cc(C)n(C)c2=O)c2ncccc12)C(=O)O [Example 466] | 0.581 nM
7 | Cc1cc(N2CCOC[C@@H]2C(F)(F)F)cc(F)c1C(=O)N[C@@H](Cc1ccc(-n2c(=O)c3cc(F)c(-n4ccnc4)cc3n(C)c2=O)c2ncccc12)C(=O)O [Example 418] | 0.104 nM
8 | COc1cnc2c(=O)n(-c3ccc(C[C@H](NC(=O)c4c(C)cc(N5CCOC[C@@H]5C(F)(F)F)cc4F)C(=O)O)c4cccnc34)c(=O)n(C)c2c1 [Example 415] | 0.091 nM
9 | Cc1cc(N2CCOC[C@@H]2C(F)(F)F)cc(F)c1C(=O)N[C@@H](Cc1ccc(-n2c(=O)c3cncnc3n(C)c2=O)c2ncccc12)C(=O)O [Example 406, (S)-2-(2-fluoro-6-methyl-4-((R)-3-(trifluoromethyl)morpholino)benzamido)-3-(8-(1-methyl-2,4-dioxo-1,4-dihydropyrimido[4,5-d]pyrimidin-3(2H)-yl)quinolin-5-yl)propanoic acid] | 0.08 nM
10 | Cc1cc(C(F)(F)F)c(-c2ccc(C[C@H](NC(=O)c3c(F)cc(N4CCOC[C@@H]4C(F)(F)F)cc3C3CC3)C(=O)O)c3cccnc23)c(=O)n1C [Example 463] | 0.205 nM
11 | Cn1c(=O)n(-c2ccc(C[C@H](NC(=O)c3c(F)cc(N4CCOC[C@@H]4C(F)(F)F)cc3F)C(=O)O)c3cccnc23)c(=O)c2ccc(F)cc21 [Example 423] | 0.08 nM

Same assay, conditions: Table 1; capture of α4β7 expressing RPM18866 cells on MadCAM-1 extracellular domain-coated plate

Row | Compound | EC50
12 | N#CCc1ccc(-c2ccc(C[C@H](NC(=O)c3c(F)cc(NS(=O)(=O)c4ccc(-c5ccnc(F)c5)cc4)cc3F)C(=O)O)c3cccnc23)c(Cl)c1 [Example 53, (S)-3-(8-(2-chloro-4-(cyanomethyl)phenyl)quinolin-5-yl)-2-(2,6-difluoro-4-((4-(2-fluoropyridin-4-yl)phenyl)sulfonamido)benzamido)propanoic acid] | 3 nM
13 | CCOCc1cc(OC)c(-c2ccc(C[C@H](NC(=O)c3c(F)cccc3F)C(=O)O)c3cc(C(F)(F)F)cnc23)c(OC)c1 [Example 37, (S)-2-(2,6-difluorobenzamido)-3-(8-(4-(ethoxymethyl)-2,6-dimethoxyphenyl)-3-(trifluoromethyl)quinolin-5-yl)propanoic acid] | 69.6 nM
14 | CCOCc1cc(OC)c(-c2ccc(C[C@H](NC(=O)c3c(F)cccc3F)C(=O)O)c3cc(C#N)cnc23)c(OC)c1 [Example 36, (S)-3-(3-cyano-8-(4-(ethoxymethyl)-2,6-dimethoxyphenyl)quinolin-5-yl)-2-(2,6-difluorobenzamido)propanoic acid] | 21 nM
15 | Cc1cc(N2CCC2)c(-c2ccc(C[C@H](NC(=O)c3c(F)cc(N4CCOC[C@@H]4C(F)(F)F)cc3F)C(=O)O)c3cccnc23)c(=O)n1C [Example 103, (S)-3-(8-(4-(azetidin-1-yl)-1,6-dimethyl-2-oxo-1,2-dihydropyridin-3-yl)quinolin-5-yl)-2-(2,6-difluoro-4-((R)-3-(trifluoromethyl)morpholino)benzamido)propanoic acid] | 0.7 nM
16 | N#Cc1ccc(-c2ccc(C[C@H](NC(=O)c3c(F)cccc3F)C(=O)O)c3cccnc23)c(Cl)c1 [Example 3, (S)-3-(8-(2-chloro-4-cyanophenyl)quinolin-5-yl)-2-(2,6-difluorobenzamido)propanoic acid] | 63.8 nM
17 | (S)-3-(8-(2-chloro-4-cyanophenyl)quinolin-5-yl)-2-(2,6-difluoro-4-((phenoxycarbonyl)amino)benzamido)propanoic acid [Example 41] | 7.7 nM
18 | O=C(N[C@@H](Cc1ccc(-c2ccncn2)c2ncccc12)C(=O)O)c1c(F)cc(NS(=O)(=O)c2ccc(-c3ccnc(F)c3)cc2)cc1F [Example 56, (S)-2-(2,6-difluoro-4-((4-(2-fluoropyridin-4-yl)phenyl)sulfonamido)benzamido)-3-(8-(pyrimidin-4-yl)quinolin-5-yl)propanoic acid] | 9.1 nM
19 | N#Cc1ccc(-c2ccc(C[C@H](NC(=O)c3c(F)cc(C(=O)O)cc3F)C(=O)O)c3cccnc23)c(Cl)c1 [Example 25, (S)-4-((1-carboxy-2-(8-(2-chloro-4-cyanophenyl)quinolin-5-yl)ethyl)carbamoyl)-3,5-difluorobenzoic acid] | 3.3 nM
20 | CC[C@@H](Nc1cc(F)c(C(=O)N[C@@H](Cc2ccc(-c3c(C)c(C)c(C)n(C)c3=O)c3ncccc23)C(=O)O)c(F)c1)C(F)(F)F [Example 115, (S)-2-(2,6-difluoro-4-(((R)-1,1,1-trifluorobutan-2-yl)amino)benzamido)-3-(8-(1,4,5,6-tetramethyl-2-oxo-1,2-dihydropyridin-3-yl)quinolin-5-yl)propanoic acid] | 0.6 nM
21 | N#Cc1ccc(-c2ccc(C[C@H](NC(=O)c3c(F)cc(N4CCC[C@@H]4C(F)(F)F)cc3F)C(=O)O)c3cccnc23)c(Cl)c1 [Example 76, (S)-3-(8-(2-chloro-4-cyanophenyl)quinolin-5-yl)-2-(2,6-difluoro-4-((R)-2-(trifluoromethyl)pyrrolidin-1-yl)benzamido)propanoic acid] | 78.4 nM

Same assay, conditions: Table 2; capture of α4β7 expressing RPM18866 cells on MadCAM-1 extracellular domain-coated plate

Row | Compound | EC50
22 | Cc1cc(C(F)(F)F)c(-c2ccc(C[C@H](NC(=O)c3c(F)cc(N4CC5CCC4CO5)cc3F)C(=O)O)c3cccnc23)c(=O)n1C (stereo partly drawn) [Example 257] | 3.5 nM
23 | Cn1ccc2c(Cl)c(C(=O)N[C@@H](Cc3ccc(-c4ccc(C#N)cc4Cl)c4ncccc34)C(=O)O)c(Cl)cc21 [Example 285] | 46.2 nM
24 | CN1CCc2nc(-c3ccc(C[C@H](NC(=O)c4c(F)cc(N5CCOC[C@@H]5C(F)(F)F)cc4F)C(=O)O)c4cccnc34)ncc2C1 [Example 312] | 12.5 nM
25 | CC[C@@H](Nc1cc(F)c(C(=O)N[C@@H](Cc2ccc(-c3ncc(C)cc3C(F)(F)F)c3ncccc23)C(=O)O)c(F)c1)C(F)(F)F [Example 310] | 12.3 nM
26 | N#Cc1ccc(-c2ccc(C[C@H](NC(=O)c3c(Cl)cc4nc[nH]c4c3Cl)C(=O)O)c3cccnc23)c(Cl)c1 [Example 323] | 17.1 nM
27 | CC(C)c1cccnc1-c1ccc(C[C@H](NC(=O)c2c(F)cc(N3CCOC[C@@H]3C(F)(F)F)cc2F)C(=O)O)c2cccnc12 [Example 248] | 3 nM
28 | Cc1cc(C(F)(F)F)c(-c2ccc(C[C@H](NC(=O)c3c(F)cc(N4C[C@H](C)OC[C@H]4C)cc3F)C(=O)O)c3cccnc23)c(=O)n1C [Example 243] | 2.9 nM
29 | Cc1cc(C(F)(F)F)c(-c2ccc(C[C@H](NC(=O)c3c(F)cc(N4C[C@@H](C)OC[C@H]4C)cc3F)C(=O)O)c3cccnc23)c(=O)n1C [Example 249] | 3 nM
30 | CC[C@@H](Nc1cc(F)c(C(=O)N[C@@H](Cc2ccc(-c3ccc(F)c4cccnc34)c3ncccc23)C(=O)O)c(F)c1)C(F)(F)F [Example 264] | 4.1 nM
31 | Cc1c(-c2ccc(C[C@H](NC(=O)c3c(F)cc(CS(=O)(=O)c4ccccc4)cc3F)C(=O)O)c3cccnc23)c(=O)n(C)c(=O)n1C [Example 203] | 1.6 nM
32 | Cc1cc(C)n(C)c(=O)c1-c1ccc(C[C@H](NC(=O)c2c(F)cc(N[C@H](C3CC3)C(F)(F)F)cc2F)C(=O)O)c2cccnc12 [Example 342] | 0.7 nM
33 | Cc1cc(C(F)(F)F)c(-c2ccc(C[C@H](NC(=O)c3c(F)cc(N4CCOCC4)cc3F)C(=O)O)c3cccnc23)c(=O)n1C [Example 217] | 2 nM
34 | N#Cc1ccc(-c2ccc(C[C@H](NC(=O)c3c(F)cc(NC(=O)c4ccccc4C(F)(F)F)cc3F)C(=O)O)c3cccnc23)c(Cl)c1 [Example 337] | 26.2 nM
35 | CCOCc1cc(OC)c(-c2ccc(C[C@H](NC(=O)c3c(Cl)cc4[nH]c(Cc5ccccc5)cc4c3Cl)C(=O)O)c3cccnc23)c(OC)c1 [Example 297] | 7.9 nM
36 | CC[C@@H](Nc1cc(F)c(C(=O)N[C@@H](Cc2ccc(-c3c(C)c4cc(F)ccc4n(C)c3=O)c3ncccc23)C(=O)O)c(F)c1)C(F)(F)F (atropisomer, axis not shown) [Example 185] | 1 nM
37 | CC[C@@H](Nc1cc(F)c(C(=O)N[C@@H](Cc2ccc(-c3nc(N)ccc3C(F)(F)F)c3ncccc23)C(=O)O)c(F)c1)C(F)(F)F [Example 208] | 1.8 nM
38 | CC[C@@H](Nc1cc(F)c(C(=O)N[C@@H](Cc2ccc(-c3c(OC)cc(C)n(C)c3=O)c3ncccc23)C(=O)O)c(F)c1)C(F)(F)F [Example 341] | 0.6 nM
39 | CC[C@@H](Nc1cc(F)c(C(=O)N[C@@H](Cc2ccc(-c3c(C(F)(F)F)c4cc(N(C)C)ccc4n(C)c3=O)c3ncccc23)C(=O)O)c(F)c1)C(F)(F)F (atropisomer, axis not shown) [Example 168] | 0.5 nM

Reference: patent US11116760B2 (Gilead Sciences, Inc., priority 2018, dated 2021)
